In PubChem BioAssay (NCI):
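These data come from cells grown in 96-well plates and exposed to compound for 48 hours at five concentrations. At the GI50, growth is halved. At the TGI there is no net growth.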

What was measured:
Assay in all cases: inhibition of tumour cell growth, NCI panel, 48 h
HCT-116 colon = test system: HCT-116 colon
CAKI-1 renal = test system: CAKI-1 renal
UACC-62 melanoma = test system: UACC-62 melanoma
IGROV1 ovarian = test system: IGROV1 ovarian
SR leukemia = test system: SR leukemia
SK-MEL-2 melanoma = test system: SK-MEL-2 melanoma
UACC-257 melanoma = test system: UACC-257 melanoma
A549 NSCLC = test system: A549 NSCLC
NCI-H460 lung = test system: NCI-H460 lung
SF-295 CNS = test system: SF-295 CNS
HT29 colon = test system: HT29 colon
SW-620 colon = test system: SW-620 colon
K-562 leukemia = test system: K-562 leukemia
UO-31 renal = test system: UO-31 renal
T-47D breast = test system: T-47D breast
NCI-H522 lung = test system: NCI-H522 lung
KM12 colon = test system: KM12 colon
RPMI-8226 leukemia = test system: RPMI-8226 leukemia
TK-10 renal = test system: TK-10 renal
HOP-92 NSCLC = test system: HOP-92 NSCLC
SNB-19 CNS = test system: SNB-19 CNS
SK-MEL-28 melanoma = test system: SK-MEL-28 melanoma
LOX IMVI melanoma = test system: LOX IMVI melanoma
PC-3 prostate = test system: PC-3 prostate
A498 renal = test system: A498 renal
M14 melanoma = test system: M14 melanoma
MOLT-4 leukemia = test system: MOLT-4 leukemia
CCRF-CEM leukemia = test system: CCRF-CEM leukemia
OVCAR-3 ovarian = test system: OVCAR-3 ovarian
OVCAR-8 ovarian = test system: OVCAR-8 ovarian
RXF 393 renal = test system: RXF 393 renal
OVCAR-4 ovarian = test system: OVCAR-4 ovarian
MCF7 breast = test system: MCF7 breast
EKVX NSCLC = test system: EKVX NSCLC
SF-539 CNS = test system: SF-539 CNS
SNB-75 CNS = test system: SNB-75 CNS
786-0 renal = test system: 786-0 renal
SN12C renal = test system: SN12C renal
HL-60(TB) leukemia = test system: HL-60(TB) leukemia
DU-145 prostate = test system: DU-145 prostate
BT-549 breast = test system: BT-549 breast
NCI/ADR-RES ovarian = test system: NCI/ADR-RES ovarian
HOP-62 NSCLC = test system: HOP-62 NSCLC
HS 578T breast = test system: HS 578T breast
COLO 205 colon = test system: COLO 205 colon
MALME-3M melanoma = test system: MALME-3M melanoma
MDA-MB-231 breast = test system: MDA-MB-231 breast
MDA-MB-435 = test system: MDA-MB-435
HCC-2998 colon = test system: HCC-2998 colon
U251 CNS = test system: U251 CNS
HCT-15 colon = test system: HCT-15 colon
SK-MEL-5 melanoma = test system: SK-MEL-5 melanoma
SF-268 CNS = test system: SF-268 CNS
OVCAR-5 ovarian = test system: OVCAR-5 ovarian

SMILES: CC1=C2C(=C[C@@](C)(COC(=O)c3ccc(S(=O)(=O)F)cc3)[C@@H]2OC(=O)c2ccc(S(=O)(=O)F)cc2)C(=O)[C@](C)(O)C12CC2
- GI50 (HCT-116 colon): 319 nM
- TGI (HCT-116 colon): 1920 nM
- GI50 (CAKI-1 renal): 466 nM
- TGI (CAKI-1 renal): 10800 nM
- GI50 (UACC-62 melanoma): 1640 nM
- TGI (UACC-62 melanoma): 4000 nM
- GI50 (IGROV1 ovarian): 478 nM
- TGI (IGROV1 ovarian): 6420 nM
- GI50 (SR leukemia): 480 nM
- TGI (SR leukemia): 10200 nM
- GI50 (SK-MEL-2 melanoma): 1760 nM
- TGI (SK-MEL-2 melanoma): 3410 nM
- GI50 (UACC-257 melanoma): 1880 nM
- TGI (UACC-257 melanoma): 3690 nM
- GI50 (A549 NSCLC): 3040 nM
- TGI (A549 NSCLC): 9270 nM
- GI50 (NCI-H460 lung): 206 nM
- TGI (NCI-H460 lung): 480 nM
- GI50 (SF-295 CNS): 2400 nM
- TGI (SF-295 CNS): 7630 nM
- GI50 (HT29 colon): 406 nM
- TGI (HT29 colon): 6400 nM
- GI50 (SW-620 colon): 607 nM
- TGI (SW-620 colon): 10200 nM
- GI50 (K-562 leukemia): 733 nM
- TGI (K-562 leukemia): 13000 nM
- GI50 (UO-31 renal): 815 nM
- TGI (UO-31 renal): 3220 nM
- GI50 (T-47D breast): 1230 nM
- TGI (T-47D breast): 4500 nM
- GI50 (NCI-H522 lung): 474 nM
- TGI (NCI-H522 lung): 2100 nM
- GI50 (KM12 colon): 2950 nM
- TGI (KM12 colon): 12700 nM
- GI50 (RPMI-8226 leukemia): 3340 nM
- TGI (RPMI-8226 leukemia): 17500 nM
- GI50 (TK-10 renal): 2750 nM
- TGI (TK-10 renal): 6870 nM
- GI50 (HOP-92 NSCLC): 2110 nM
- TGI (HOP-92 NSCLC): 5620 nM
- GI50 (SNB-19 CNS): 2540 nM
- TGI (SNB-19 CNS): 14200 nM
- GI50 (SK-MEL-28 melanoma): 1710 nM
- TGI (SK-MEL-28 melanoma): 3880 nM
- GI50 (LOX IMVI melanoma): 1150 nM
- TGI (LOX IMVI melanoma): 6380 nM
- GI50 (PC-3 prostate): 1070 nM
- TGI (PC-3 prostate): 11300 nM
- GI50 (A498 renal): 1820 nM
- TGI (A498 renal): 4290 nM
- GI50 (M14 melanoma): 1360 nM
- TGI (M14 melanoma): 3320 nM
- GI50 (MOLT-4 leukemia): 1010 nM
- TGI (MOLT-4 leukemia): 8730 nM
- GI50 (CCRF-CEM leukemia): 2280 nM
- TGI (CCRF-CEM leukemia): 15300 nM
- GI50 (OVCAR-3 ovarian): 549 nM
- TGI (OVCAR-3 ovarian): 3900 nM
- GI50 (OVCAR-8 ovarian): 631 nM
- TGI (OVCAR-8 ovarian): 4010 nM
- GI50 (RXF 393 renal): 337 nM
- TGI (RXF 393 renal): 965 nM
- GI50 (OVCAR-4 ovarian): 1780 nM
- TGI (OVCAR-4 ovarian): 7510 nM
- GI50 (MCF7 breast): 342 nM
- TGI (MCF7 breast): 3960 nM
- GI50 (EKVX NSCLC): 3040 nM
- TGI (EKVX NSCLC): 9330 nM
- GI50 (SF-539 CNS): 1560 nM
- TGI (SF-539 CNS): 3960 nM
- GI50 (SNB-75 CNS): 1350 nM
- TGI (SNB-75 CNS): 2660 nM
- GI50 (786-0 renal): 1400 nM
- TGI (786-0 renal): 4680 nM
- GI50 (SN12C renal): 1730 nM
- TGI (SN12C renal): 11500 nM
- GI50 (HL-60(TB) leukemia): 433 nM
- TGI (HL-60(TB) leukemia): 3140 nM
- GI50 (DU-145 prostate): 373 nM
- TGI (DU-145 prostate): 5480 nM
- GI50 (BT-549 breast): 1260 nM
- TGI (BT-549 breast): 3010 nM
- GI50 (NCI/ADR-RES ovarian): 698 nM
- TGI (NCI/ADR-RES ovarian): 9630 nM
- GI50 (HOP-62 NSCLC): 1460 nM
- TGI (HOP-62 NSCLC): 5880 nM
- GI50 (HS 578T breast): 2370 nM
- TGI (HS 578T breast): 6630 nM
- GI50 (COLO 205 colon): 638 nM
- TGI (COLO 205 colon): 2250 nM
- GI50 (MALME-3M melanoma): 1160 nM
- TGI (MALME-3M melanoma): 2940 nM
- GI50 (MDA-MB-231 breast): 1540 nM
- TGI (MDA-MB-231 breast): 7410 nM
- GI50 (MDA-MB-435): 1480 nM
- TGI (MDA-MB-435): 3710 nM
- GI50 (HCC-2998 colon): 1310 nM
- TGI (HCC-2998 colon): 3060 nM
- GI50 (U251 CNS): 1620 nM
- TGI (U251 CNS): 5420 nM
- GI50 (HCT-15 colon): 439 nM
- TGI (HCT-15 colon): 4420 nM
- GI50 (SK-MEL-5 melanoma): 1480 nM
- TGI (SK-MEL-5 melanoma): 2920 nM
- GI50 (SF-268 CNS): 705 nM
- TGI (SF-268 CNS): 9100 nM
- GI50 (OVCAR-5 ovarian): 558 nM
- TGI (OVCAR-5 ovarian): 4330 nM
